From patent US11230526B1, “Cylcoalkenyl derivatives useful as agonists of the GPR120 and/or GPR40 receptors” (Janssen Pharmaceutica NV, priority 2018, dated 2022)

Legend:
C57bl/6J Mice = assay: GPR120 C57bl6 mouse IPGTT; format: in vivo; settings: male C57bl/6J mice, dosed 30 minutes prior to glucose (IP) 1.5 g/kg
Protocol: Male, C57bl/6J Mice were ordered in at 8 weeks of age from Jackson Labs. Individual mice weighed anywhere in the range of 25-30 grams on study day. The mice were fasted, with removal of food occurring at 7 am on the morning of the study. Animals were moved into the room at 10:00 am, to give them time to acclimate. Glucose (insulin syringes) was drawn up either the night before or the morning of the study. Glucose was dosed (IP) at 1.5 g/kg at 7.5 ml/kg (20% glucose straight TEKNOVA, 250 ml sterile bottle w/catalogue number G0525). Test compounds were kept spinning and were only drawn into the syringes prior to study commencement. Animals were bled via tail snip to determine basal glucose levels prior to dosing of treatments. An Ascensia BREEZE Blood Glucose Monitoring System by Bayer (using unique 10-test disks) was used for determining glucose levels. The bleeds started at approximately 12:45 pm and dosing started, at 1-minute intervals, immediately after. All groups were dosed 30 minutes prior to glucose administration at a dose volume of 10 ml/kg (the dose volume was calculated separately for each individual animal). Thirty minutes after the first dose animals were bled again for a second baseline, or T=0, and immediately dosed with glucose via an i.p. injection. The exact dose volume for glucose was also calculated separately for each individual animal. Glucose measurements were taken at −30 min prior to compound dose, at t=0 (immediately prior to glucose dose), and at 15, 30, 45, 60, 90 min post glucose dose.
Glucose values were entered into an Excel sheet and graphed in GraphPad Prism. The following were calculated from Prism: Change from −30 to 0 Baseline Glucose, Raw Glucose AUC −30 to 90 min, Delta Glucose AUC −30 to 90 min, Raw Glucose AUC 0 to 90 min, Delta Glucose AUC 0 to 90 min.

[1] = tested on: C57B16 mice on a high fat diet; assay: GPR120 DIO mice OGTT screening; format: in vivo, mouse; settings: DIO mice (60% HFD), glucose AUC −30 to 90 min, % change from vehicle
Protocol: GPR120 DIO Mice OGTT Screening
18-22 week old, C57B16 mice on a high fat diet (60% HFD) for 12-16 weeks (ave. body weight ˜ 37-41 g) were fasted for 6 hr, with removal of food occurring at 7 am on the morning of the study. The animals were sorted into treatment groups the day before the study by body weight. Animals outside the bounds of ˜30-50 g were left out of the study. The animals had been handled and shammed a total of 5-8 days (1-3 days immediately prior to the study). Glucose (in 1 mL syringes) was drawn up the morning of the study. Test compounds were kept spinning and were only drawn into 1 ml syringes prior to study commencement. Animals were bled via tail snip to determine basal glucose levels prior to dosing of treatments. An Ascensia BREEZE Blood Glucose Monitoring System by Bayer was used for determining glucose levels.
Animals were moved into the testing room at ˜9-11 am, to yield them time to acclimate. The bleeds and dosing started at approximately 1 pm in 30-second intervals per animal. All groups were dosed 30 minutes prior to glucose administration at a dose volume of 10 ml/kg (the dose volume was calculated separately for each individual animal). Test compounds were administered at one or more of the following dosages: 0.1 mg/kg, 0.3 mg/kg, 1 mg/kg, 3 mg/kg and 10 mg/kg.
Thirty minutes after the first dose (with test compound) animals were bled again for a second baseline, or T=0, and immediately dosed with glucose (20% solution, TEKNOVA, 250 ml sterile bottle w/catalogue number G0525) via a PO injection. The exact dose volume for glucose was also calculated separately for each individual animal.
Blood glucose was measured at 15, 30, 45, 60, and 90 minutes post-glucose administration via the snipped tail. If an animal reached a value of “HI”, the upper limit of the glucometer (600 mg/dl) was substituted as the blood glucose value and the study was analyzed as normal with no exclusions. If 50% or more of any treatment group reaches a “HI” value at least once, the study was considered invalid and repeated. Glucose values were typed into an EXCEL spreadsheet where they were used to calculate glucose AUC and delta AUC post-compound and post-glucose. The glucose excursion curves and the different versions of the AUC's were graphed in GraphPad Prism 5.
Note: All statistics completed in this study were completed using the statistical software package GraphPad Prism 5. Standard procedures for analyzing data sets from screening GPR120 compounds in DIO mouse OGTT's were as listed here below. In addition to the statistics that were run using GraphPad Prism 5, Microsoft Excel was used to calculate the percent changes in AUC from vehicle groups as detailed below.
Change from −30 to 0 Baseline Glucose, Raw Glucose AUC −30 to 90 min, Delta Glucose AUC −30 to 90 min, Raw Glucose AUC 0 to 90 min, Delta Glucose AUC 0 to 90 min were analyzed using Column Statistics Analysis, with mean values used to calculate % change from the vehicle mean group, as well as mean, SEM and/or % change from vehicle, where appropriate, and using One-Way ANOVA w/a Tukey Post-Test (Comparing All Pairs of Columns) with each treatment group examined to see if it was statistically significant compared to vehicle (*=P<0.05, **=P<0.01, ***=P<0.001).

For `Cc1cc(CCC(=O)O)ccc1OCC1=C(c2ccc(Cl)cc2)CCC1` [Compound 62, 3-[4-[[2-(4-chlorophenyl)cyclopenten-1-yl]methoxy]-3-methyl-phenyl]Propanoic Acid], the “C57 IPGTT, Dose Response Results” value (C57bl/6J Mice; 1 mg/kg) was 10%, the “C57 IPGTT, Dose Response Results” value (C57bl/6J Mice; 3 mg/kg) was 35% and the “C57 IPGTT, Dose Response Results” value (C57bl/6J Mice; 10 mg/kg) was 56%.
In the case of `Cc1ccc(C2=C(COc3ccc(CCC(=O)O)c(C)c3C)CCC2)cn1` [Compound 85, 3-(2,3-dimethyl-4-((2-(6-methylpyridin-3-yl)cyclopent-1-en-1-yl)methoxy)phenyl)Propanoic Acid], the “C57 IPGTT, Dose Response Results” value (C57bl/6J Mice; 1 mg/kg) is reported as 13%, the “C57 IPGTT, Dose Response Results” value (C57bl/6J Mice; 3 mg/kg) is reported as 24% and the “C57 IPGTT, Dose Response Results” value (C57bl/6J Mice; 10 mg/kg) is reported as 19%.
In the case of `CCc1ccc(C2=C(COc3ccc(CCC(=O)O)c(C)c3C)CCC2)cc1` [Compound 27, 3-(4-((2-(4-ethylphenyl)cyclopent-1-en-1-yl)methoxy)-2,3-dimethylphenyl)Propanoic Acid], the “C57 IPGTT, Dose Response Results” value (C57bl/6J Mice; 1 mg/kg) is reported as 15%, the “C57 IPGTT, Dose Response Results” value (C57bl/6J Mice; 3 mg/kg) is reported as 23% and the “C57 IPGTT, Dose Response Results” value (C57bl/6J Mice; 10 mg/kg) is reported as 37%.
With `Cc1ccc(C2=C(COc3ccc(CCC(=O)O)c(F)c3F)CCCC2)cc1F` [Compound 494, 3-[2,3-difluoro-4-[[2-(3-fluoro-4-methyl-phenyl)cyclohexen-1-yl]methoxy]phenyl]Propanoic Acid] the “DIO Lowering (−30 to 90)” value ([1]; 10 mg/kg) was −28%.
In the case of `Cc1c(CCC(=O)O)ccc(OCC2=C(c3ccc(Cl)cc3)CCC(F)(F)C2)c1C` [Compound 468, 3-[4-[[2-(4-chlorophenyl)-5,5-difluoro-cyclohexen-1-yl]methoxy]-2,3-dimethyl-phenyl]Propanoic Acid], the “DIO Lowering (−30 to 90)” value ([1]; 10 mg/kg) is reported as −85%.
With `Cc1ccc(C2=C(COc3ccc(CCC(=O)O)c(C)c3C)CCC2)cc1` [Compound 52, 3-[2,3-dimethyl-4-[[2-(p-tolyl)cyclopenten-1-yl]methoxy]phenyl]Propanoic Acid] the “C57 IPGTT, Dose Response Results” value (C57bl/6J Mice; 3 mg/kg) was 11%, the “C57 IPGTT, Dose Response Results” value (C57bl/6J Mice; 10 mg/kg) was 30% and the “C57 IPGTT, Dose Response Results” value (C57bl/6J Mice; 30 mg/kg) was 92%. For the same molecule, the “DIO Lowering (−30 to 90)” value ([1]; 10 mg/kg) was −86%.
In the case of `Cc1c(CCC(=O)O)ccc(OCC2=C(c3ccc(Cl)cc3)CC(F)(F)C2)c1C` [Compound 137, 3-[4-[[2-(4-chlorophenyl)-4,4-difluoro-cyclopenten-1-yl]methoxy]-2,3-dimethyl-phenyl]Propanoic Acid], the “DIO Lowering (−30 to 90)” value ([1]; 10 mg/kg) is reported as −56%.
For `Cc1cc(CCC(=O)O)ccc1OCC1=C(c2ccc(Cl)cc2)CCCC1` [Compound 483, 3-[4-[[2-(4-chlorophenyl)cyclohexen-1-yl]methoxy]-3-methyl-phenyl]Propanoic Acid], the “C57 IPGTT, Dose Response Results” value (C57bl/6J Mice; 1 mg/kg) was 23%, the “C57 IPGTT, Dose Response Results” value (C57bl/6J Mice; 3 mg/kg) was 33% and the “C57 IPGTT, Dose Response Results” value (C57bl/6J Mice; 10 mg/kg) was 51%.
With `CCc1ccc(C2=C(COc3ccc(CCC(=O)O)c(F)c3F)CCC2)cc1` [Compound 25, 3-(4-((2-(4-ethylphenyl)cyclopent-1-en-1-yl)methoxy)-2,3-difluorophenyl)Propanoic Acid] the “C57 IPGTT, Dose Response Results” value (C57bl/6J Mice; 3 mg/kg) was 17%, the “C57 IPGTT, Dose Response Results” value (C57bl/6J Mice; 10 mg/kg) was 22% and the “C57 IPGTT, Dose Response Results” value (C57bl/6J Mice; 30 mg/kg) was 39%.
`Cc1ccc(C2=C(COc3ccc(CCC(=O)O)c(C)c3C)CCC2)cc1F` [Compound 80, 3-(4-((2-(3-fluoro-4-methylphenyl)cyclopent-1-en-1-yl)methoxy)-2,3-dimethylphenyl)Propanoic Acid] was tested, and the “C57 IPGTT, Dose Response Results” value (C57bl/6J Mice; 3 mg/kg) was 10%, the “C57 IPGTT, Dose Response Results” value (C57bl/6J Mice; 10 mg/kg) was 55% and the “C57 IPGTT, Dose Response Results” value (C57bl/6J Mice; 30 mg/kg) was 81%. The “DIO Lowering (−30 to 90)” value ([1]; 3 mg/kg) was −33% and the “DIO Lowering (−30 to 90)” value ([1]; 10 mg/kg) was −60%.
For `Cc1ccc(C2=C(COc3ccc(CCC(=O)O)c(F)c3F)CCC2)cc1` [Compound 94, 3-(2,3-difluoro-4-((2-(p-tolyl)cyclopent-1-en-1-yl)methoxy)phenyl)Propanoic Acid], the “DIO Lowering (−30 to 90)” value ([1]; 10 mg/kg) was −11%.
